Experimental data: patent US9969719B2, “Substituted 2-hydrogen-pyrazole derivative serving as anticancer drug” (CHIA TAI TIANQING PHARMACEUTICAL GROUP CO., LTD., priority 2015, dated 2018)
Where two headings read alike, the source gives them in different places.

Key:
MDA-MB-436 cells = assay: MDA-MB-436 cell proliferation (CellTiter-Glo); type: cell-based; conditions: Homo sapiens
Method: RPMI 1640 medium, fetal bovine serum, penicillin/streptomycin were purchased from Promega (Madison, Wis.). The MCF-7 cell line and the MDA-MB-436 cell line were purchased from the European Collection of Authenticated Cell Cultures (ECACC). EnVision® Multilabel Plate Reader (PerkinElmer) was used.
(§1) The compounds to be tested were diluted three times using Bravo to the tenth concentration, i.e., diluted from 10 μM to 0.508 nM. A duplicate well test was performed. The medium was added to the middle plate in an amount of 49 μL per well. The gradient dilutions of the compounds were transferred in an amount of 1 μL per well to the middle plate at the corresponding positions, and the mixture was mixed and transferred to the cell plate in an amount of 5 μL per well. The cell plate was incubated in a carbon dioxide incubator for 6 days. Promega CellTiter-Glo reagent was added to the cell plate in an amount of 25 μL per well. The cell plate was incubated at room temperature for 10 minutes to stabilize the luminescence signal. EnVision® Multilabel Plate Reader (PerkinElmer) was used for signal detection.
The IC50 values were obtained by curve fitting using four parameters (obtained from the 205 mode in XLFIT5, iDBS). Table 1 provides the inhibitory activities of the compounds of the invention against the proliferation of MCF-7 cells and MDA-MB-436 cells.

CDK4/cyclin D1 = molecular target: T1, CDK4/cyclin D1 (Homo sapiens, UniProt P11802); assay: CDK4/cyclin D1 Lance Ultra enzyme assay; type: biochemical; conditions: for inhibitory activities against CDK4 compared with the reference compounds: versus Palbociclib and LY2835219, in words; for IC50: 350 μM ATP, 180 minutes
T1 construct: purchased Life Technologies
T1 sequence (P11802 whole entry): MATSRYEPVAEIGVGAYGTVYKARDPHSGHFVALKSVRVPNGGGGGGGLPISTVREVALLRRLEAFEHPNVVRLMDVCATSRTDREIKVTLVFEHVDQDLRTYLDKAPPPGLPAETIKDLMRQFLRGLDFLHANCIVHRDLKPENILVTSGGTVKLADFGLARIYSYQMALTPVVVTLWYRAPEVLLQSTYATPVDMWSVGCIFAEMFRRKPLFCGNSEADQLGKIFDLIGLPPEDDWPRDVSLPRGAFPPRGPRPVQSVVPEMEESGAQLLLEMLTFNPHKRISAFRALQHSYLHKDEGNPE
T1 sequence (P24385 whole entry partner): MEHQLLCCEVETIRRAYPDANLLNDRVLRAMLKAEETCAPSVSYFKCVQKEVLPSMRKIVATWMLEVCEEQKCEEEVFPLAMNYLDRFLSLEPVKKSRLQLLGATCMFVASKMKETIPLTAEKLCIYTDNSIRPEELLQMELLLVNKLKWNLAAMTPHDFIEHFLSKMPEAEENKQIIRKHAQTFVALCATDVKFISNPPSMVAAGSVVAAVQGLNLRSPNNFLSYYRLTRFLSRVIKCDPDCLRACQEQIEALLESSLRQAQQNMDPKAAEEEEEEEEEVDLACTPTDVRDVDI
Method: (§2) The experimental materials included CDK2/cyclin A, CDK4/cyclin D1, CDK6/cyclin D1 (Life Technologies); ULight-labeled polypeptide substrates, i.e., ULight-4E-BP1 and ULight-MBP (PerkinElmer); the europium-labeled antibody against anti-myelin basic protein and europium-labeled rabbit antibody (PerkinElmer); and Envision® Multilabel Plate Reader (PerkinElmer) used for signal detection.
(§3) The compounds to be tested were diluted three times so as to be at ten gradually varied concentrations.
(§4) The dilutions of the compounds were dissolved in enzyme buffer, respectively. The components of the buffer included 50 mM hydroxyethylpiperazine ethanesulfonic acid solution (pH 7.5), 1 mM ethylenediaminetetraacetic acid, 10 mM magnesium chloride, 0.01% Brij-35, and 2 mM dithiothreitol. After the reaction started, the OptiPlate 384-well plate was sealed with top heat-sealing film TopSeal-A and incubated at room temperature for 180 minutes. • The Enzyme Reaction System of CDK6/Cyclin D1
(§5) The stop buffer of the enzyme reaction was prepared by dissolving EDTA in a one-fold dilution of the assay buffer. The reaction was terminated at room temperature for 5 minutes. To each of the reaction systems of CDK2/cyclin A, CDK4/cyclin D1 and CDK6/cyclin D1 was added 5 μL assay mixture (provided with antibody the europium-labeled against anti-myelin basic protein and the europium-labeled rabbit antibody, respectively). They were incubated at room temperature for 60 minutes. The reaction signals were detected by the EnVision instrument according to the principle of time-resolved fluorescence resonance energy transfer.

CDK6/cyclin D1 = molecular target: T2, CDK6/cyclin D1 (Homo sapiens, UniProt Q00534); assay: CDK6/cyclin D1 Lance Ultra enzyme assay; type: biochemical; conditions: for IC50: 250 μM ATP, 180 minutes; for inhibitory activities against CDK6 compared with the reference compounds: versus Palbociclib and LY2835219, in words
T2 construct: purchased Life Technologies
T2 sequence (Q00534 whole entry): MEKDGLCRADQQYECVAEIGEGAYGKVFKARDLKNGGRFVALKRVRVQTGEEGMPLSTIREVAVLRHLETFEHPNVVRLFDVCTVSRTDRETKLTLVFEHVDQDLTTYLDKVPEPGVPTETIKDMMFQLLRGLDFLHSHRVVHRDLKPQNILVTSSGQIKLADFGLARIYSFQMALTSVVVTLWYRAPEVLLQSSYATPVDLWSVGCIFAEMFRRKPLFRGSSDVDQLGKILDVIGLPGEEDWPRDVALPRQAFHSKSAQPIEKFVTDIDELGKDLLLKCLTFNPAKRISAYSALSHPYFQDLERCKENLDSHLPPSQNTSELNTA
T2 sequence (P24385 whole entry partner): as the sequence (P24385 whole entry partner) above
Method: as §2, §3
as §4, with “minutes.” for “minutes. • The Enzyme Reaction System of CDK6/Cyclin D1”
as §5

MCF-7 cells = assay: MCF-7 cell proliferation (CellTiter-Glo, 6 days); type: cell-based, human; conditions: for IC50: Homo sapiens, MCF7, proliferation, 6 days; for MCF-7/MDA-MB-436: ratio of the proliferation IC50 values; for inhibitory activities against the proliferation of MCF-7 cells compared with the reference compounds: versus Palbociclib and LY2835219, in words
Method: EnVision® Multilabel Plate Reader (PerkinElmer) was used.
MCF-7 cells were inoculated in a black 384-well plate by adding 45 μL of the cell suspension (containing 200 of MCF-7 cells) to each of the wells. The plate was incubated overnight in a carbon dioxide incubator.
as §1, with “A” for “The compounds to be tested were diluted three times using Bravo to the tenth concentration, i.e., diluted from 10 μM to 0.508 nM. A”

[1] = system: human breast cancer cell line MCF-7; type: in vivo; conditions: for Tomor volumes: 25.0 mg/kg orally daily
Method: The in vivo pharmacodynamic study was carried out in human-based tumor cell line-derived xenografted (CDX) BALB/c nude mice, in which were subcutaneously implanted human breast cancer cell line MCF-7.
. All the cages, matts and water were disinfected before use. All the animals had free access to a standard certified commercial laboratory diet. A total of 100 mice were purchased from Shanghai BK Laboratory Animal Co., LTD for study. An estrogen tablet ([…], sustained release within 60 days) was subcutaneously implanted in the left next abdomen of each mice. After 3 days, the tumor cells (10×10^6 in 0.2 mL of phosphate buffer) were subcutaneously implanted in the right next abdomen of each mice for the tumor growth. The administration started when the average tumor volume reached about 150-200 mm^3. The test compounds were orally administered daily, the doses were shown as Table 5. The tumor volumes were measured with a two-dimensional caliper every three days, the volumes were expressed in cubic millimeters and calculated by the formula V=0.5a×b^2, wherein a and b were the major diameter and minor diameter of the tumor, respectively. Antitumor efficacy was determined by dividing an average increase of the tumor volumes of the animals treated with the compounds by an increase of the tumor volumes of the untreated animals.

CDK2/cyclin A = molecular target: T3, CDK2/cyclin A (Homo sapiens, UniProt P24941); assay: CDK2/cyclin A Lance Ultra enzyme assay; type: biochemical; conditions: 25 μM ATP, 60 minutes
T3 construct: purchased Life Technologies
Method: as §2, §3
as §4, with “The gradient dilutions of” for “The dilutions of”, “temperature for 60 minutes. •” for “temperature for 180 minutes. •”, “System of CDK4/Cyclin D1” for “System of CDK6/Cyclin D1”
as §5

[2] = Study of brain permeability after oral administration; type: in vivo, SD rats; conditions: rat, versus Palbociclib and LY2835219, in words; b797: 0.5 hour and 2 hour
Method: SD rats were used as the test animals.
Twelve healthy 7- to 9-week-old adult male SD rats were purchased from Shanghai Slack Laboratory Animal Co., Ltd. A proper amount of the test compound was weighed to prepare a 0.5% methylcellulose suspension at 1 mg/mL. The rats received a single oral dose of 10 mg/kg. 0.5 h, 2 h, 8 h, and 24 hours after the administration, 3 rats were respectively killed, and their whole blood and brain tissues were collected. The plasma was prepared by centrifuging the whole blood (3000 g, 15 minutes, 4° C.). The samples of brain homogenate were prepared by mixing the brain tissues with a mixture of methanol and a phosphate buffer (methanol:phosphate buffer=1:2) as homogenate at a ratio of 5:1. The drug concentration of each sample was determined by LC/MS/MS, and AUC was calculated to evaluate the exposure.

Caco-2 monolayer cells = assay: Caco-2 cell bi-directional permeability assessment; conditions: Caco-2
Method: The standard experimental conditions were as follows: • Test concentration: 2 μM (DMSO≤1%); • Number of replication: n=2; • Direction: bi-directional transportation, including two directions, i.e., A→B and B→A; • Incubation time: single time point, 2 hours; • Transport buffer: HBSS, pH 7.4; • Incubation conditions: 37° C., 5% CO2.
After the incubation, sample solutions taken from the dosing wells and the receiving wells were immediately mixed with a cold acetonitrile solution containing the internal standard. Concentrations of the test compounds in all samples (including the initial dosing solutions, the supernatants of the dosing wells and the receiving solutions) were determined by a LC/MS/MS method. The apparent permeability coefficients, the efflux ratios and other parameters were calculated.

Row | Compound | IC50 (MDA-MB-436 cells) [nM] | inhibitory activities against CDK4 compared with the reference compounds (CDK4/cyclin D1) | IC50 (CDK6/cyclin D1) [nM] | inhibitory activities against CDK6 compared with the reference compounds (CDK6/cyclin D1) | IC50 (MCF-7 cells) [nM] | MCF-7/MDA-MB-436 (MCF-7 cells) | Tomor volumes ([1]; 0 day) [mm^3] | Tomor volumes ([1]; 7th day) [mm^3] | Tomor volumes ([1]; 14th day) [mm^3] | Tomor volumes ([1]; 21st day) [mm^3] | antitumor activities in the CDX model of MCF-7 breast cancer ([1]; in words) | IC50 (CDK4/cyclin D1) [nM] | inhibitory activities against the proliferation of MCF-7 cells compared with the reference compounds (MCF-7 cells) | IC50 (CDK2/cyclin A) [nM] | exposure in brain tissue compared with the reference compounds [2] | Classification Substrates of efflux transporters (Caco-2 monolayer cells)
1 | CC(C)c1c2cc(-c3nc(Nc4ccc(N5CCNCC5)cn4)ncc3F)ccc2nn1C [Example 3, 5-fluoro-4-(3-isopropyl-2-methyl-2H-indazol-5-yl)-N-(5-(piperazin-1-yl)pyridin-2-yl) pyrimidine-2-amine] | 328 | higher inhibitory activities | < 0.8 | higher inhibitory activities | 32.1 | 10.2 | 187 | 249 | 288 | 432 | significant antitumor activities | – | – | – | – | –
2 | CC(C)c1c2cc(-c3nc(Nc4ccc(N5CCN(CCN)CC5)cn4)ncc3F)ccc2nn1C [Example 9, N-[5-[4-(2-aminoethyl)piperazin-1-yl]-2-pyridyl]-5-fluoro-4-(3-isopropyl-2-methyl-2H-indazol-5-yl)pyrimidine-2-amine] | 667 | higher inhibitory activities | < 0.8 | higher inhibitory activities | 45 | 14.8 | – | – | – | – | – | 0.31 | higher inhibitory activities | 5.95 | – | –
3 | CC(C)c1c2cc(-c3nc(Nc4ccc(N5CCN(CCO)CC5)cn4)ncc3F)ccc2nn1C [Example 10, 2-[4-[6-[[5-fluoro-4-(3-isopropyl-2-methyl-2H-indazol-5-yl)pyrimidin-2-yl]amino]-3-pyridyl]piperazin-1-yl]ethanol] | 496 | higher inhibitory activities | 0.97 | higher inhibitory activities | 28.9 | 17.2 | – | – | – | – | – | 0.88 | higher inhibitory activities | 6.62 | – | –
4 | CC(C)c1c2cc(-c3nc(Nc4ccc(C5CCNCC5)cn4)ncc3F)ccc2nn1C [Example 13, 5-fluoro-4-(3-isopropyl-2-methyl-2H-indazol-5-yl)-N-[5-(piperidin-4-yl)-2-pyridyl]pyrimidine-2-amine] | – | – | – | – | – | – | – | – | – | – | – | – | – | – | much higher | not a substrate of an efflux transporter
5 | CC(C)c1c2cc(-c3nc(Nc4ccc(N5C[C@@H]6C[C@H]5CN6)cn4)ncc3F)ccc2nn1C [Example 15, N-(5-((1 S,4S)-2,5-diazabicyclo[2.2.1]heptan-2-yl)pyridin-2-yl)-5-fluoro-4-(3-isopropyl-2-methyl-2H-indazol-5-yl)pyrimidine-2-amine] | 522 | higher inhibitory activities | < 0.8 | higher inhibitory activities | 56 | 9.3 | – | – | – | – | – | < 0.3 | higher inhibitory activities | 2.82 | – | –
6 | CC(C)c1c2c(nn1C)CCN(c1nc(Nc3ccc(C4CCN(C)CC4)cn3)ncc1F)C2 [Example 24] | 3280 | – | 5.79 | – | 265 | 12.4 | – | – | – | – | – | 1.38 | – | 32.8 | – | –
